Like-named read-outs stand apart in the source and are kept apart here.
Tests used:
[1] = system: IEC18 Rat Epithelial Cells (IEC18-S33Y); conditions: 17-20 h with compound, WST-1
Procedure: Using the above assay system, IC50 and LD50 values were determined for the pyrimidotriazinedione compounds. IEC18-S33Y cells carrying a β-catenin firefly luciferase cassette and a constitutively active renilla luciferase cassette were seeded at 40,000 cells/well in 96-well tissue culture plates (BD Biosciences, Bedford, Mass.) in a total volume of 80 μL of tissue culture medium (Dulbecco's modified Eagle medium without Phenol-Red (Invitrogen, Carlsbad, Calif.) supplemented with 10% (v/v) fetal bovine serum (Hyclone, Logan, Utah)) and incubated for 24 h. […] Working solutions of the compounds were obtained by further diluting the stock solutions in tissue culture medium by at least 50-fold. Serial twofold dilutions of the working solutions of the compounds were added to the cells in a volume of 40 μL and the cells were incubated in the presence of the compounds for 17-20 h.
LD50 values of the pyrimidotriazinediones then were determined using a WST-1 colorimetric cell proliferation assay. A mixture containing 20 μL of medium and 10 μL of WST-1 reagent (available from Roche, Indianapolis, Ind.) was added to the cells and the cells were incubated for 1 h at 37° C., after which time absorption at 550 nm was measured using a microplate reader.

[2] = system: β-catenin/TCF complex; assay: cells; type: cell-based
[3] = Pharmacokinetic properties in mice (plasma level by HPLC/MS); type: in vivo; conditions: 10 mg/kg, plasma 1 minute to 12 hours post-injection
Procedure: The pharmacokinetic properties of a substituted pyrimido[5,4-e][1,2,4]triazine-5,7(6H,8H)-dione of formula II (3-(4-(2-(Diethylamino)ethoxy)phenyl)-8-(3,4-difluorobenzyl)-6-methylpyrimido[5,4-e][1,2,4]triazine-5,7(6H,8H)-dione) in mice were determined by dosing a cohort of mice with 10 mg/kg compound. Blood was drawn from the mice at various time points (1 minute, 15 minutes, 30 minutes, 3 hours, 6 hours, and 12 hours) post-injection. The blood plasma was isolated from the drawn blood and the amount of compound present in the plasma was measured by HPLC with peak analysis by mass spectrometry.

[4] = Rattus norvegicus, IEC18-S33Y cells, 17-20 h with compound, β-catenin-dependent firefly luciferase with Renilla control, read-out: IC50

For `Cn1nc(-c2ccc([N+](=O)[O-])cc2)nc2c(=O)n(C)c(=O)nc1-2`, the melting point was 220 to 223 °C.
With `Cn1nc(-c2cccc([N+](=O)[O-])c2)nc2c(=O)n(C)c(=O)nc1-2` the melting point was 223 to 224 °C.
With `Cn1c(=O)nc2[nH]nc(-c3ccccc3F)nc-2c1=O` the melting point was 248 to 250 °C.
In the case of `CCCn1c(=O)n(C)c(=O)c2nc(-c3ccc(Cl)cc3)nnc21`, the melting point is reported as 202 to 205 °C.
For `Cc1ccc(Cn2c(=O)n(C)c(=O)c3nc(-c4ccccc4F)nnc32)cc1`, the melting point was 320 °C (dec.).
With `Cn1c(=O)c2nc(-c3ccccc3)nnc2n(Cc2ccc(F)cc2)c1=O` the melting point was 253 to 254 °C.
In the case of `Cn1c(=O)c2nc(-c3ccc(Cl)cc3)nnc2n(Cc2ccccc2F)c1=O`, the melting point is reported as 251 to 254 °C.
With `Cn1c(=O)c2nc(-c3ccccc3)nnc2n(Cc2ccc(C(F)(F)F)cc2)c1=O` the melting point was 225 to 227 °C (dec.).
For `Cn1c(=O)c2nc(-c3ccccc3)nnc2n(Cc2ccc([N+](=O)[O-])cc2)c1=O`, the melting point was 274 to 280 °C (dec.).
In the case of `Cn1c(=O)nc2n(CCO)nc(-c3ccc(Cl)c(Cl)c3)nc-2c1=O`, the melting point is reported as 208 to 211 °C (dec.).
For `COc1ccc(-c2nc3c(=O)n(C)c(=O)nc-3n(CCO)n2)cc1OC`, the melting point was 215 to 218 °C (dec.).
`Cn1nc(-c2ccccc2)[n+]([O-])c2c(=O)n(C)c(=O)nc1-2` gave an LD50 [1] of 1.71 ± 46.77 µM and an IC50 [2, 4] of 490 ± 220 nM.
In the case of `Cn1nc(-c2ccc(Cl)cc2)[n+]([O-])c2c(=O)n(C)c(=O)nc1-2`, the LD50 [1] is reported as 2.01 ± 2.58 µM and the IC50 [2, 4] is reported as 700 ± 150 nM.
With `Cc1nc2c(=O)n(C)c(=O)nc-2n(C)n1` [Compound 5b, 1,3,6-Trimethylpyrimido[5,4-e][1,2,4]triazine-5,7(1H,6H)-dione] the LD50 [1] was 2.02 ± 0.75 µM and the IC50 [2, 4] was 1000 ± 190 nM.
With `CCc1nc2c(=O)n(C)c(=O)nc-2n(C)n1` [Compound 5c, 3-Ethyl-1,6-dimethylpyrimido[5,4-e][1,2,4]triazine-5,7(1H,6H)-dione] the LD50 [1] was 2.94 ± 10 µM and the IC50 [2, 4] was 1420 ± 250 nM.
`Cn1nc(-c2ccccc2)nc2c(=O)n(C)c(=O)nc1-2` [Compound 5d, 1,6-Dimethyl-3-phenylpyrimido[5,4-e][1,2,4]triazine-5,7(1H,6H)-dione] showed an LD50 [1] of 1.39 ± 0.44 µM and an IC50 [2, 4] of 530 ± 100 nM.
With `Cc1ccc(-c2nc3c(=O)n(C)c(=O)nc-3n(C)n2)cc1` [Compound 5e, 1,6-Dimethyl-3-(4-methylphenyl)pyrimido[5,4-e][1,2,4]triazine-5,7(1H,6H)-dione] the LD50 [1] was 0.84 ± 0.25 µM and the IC50 [2, 4] was 680 ± 90 nM.
Work on `Cn1nc(-c2ccc(F)cc2)nc2c(=O)n(C)c(=O)nc1-2` [Compound 5f, 3-(4-Fluorophenyl)-1,6-dimethylpyrimido[5,4-e][1,2,4]triazine-5,7(1H,6H)-dione] yielded an LD50 [1] of 1.10 ± 0.01 µM and an IC50 [2, 4] of 300 ± 70 nM.
`Cn1nc(-c2ccccc2F)nc2c(=O)n(C)c(=O)nc1-2` [Compound 5g, 3-(2-Fluorophenyl)-1,6-dimethylpyrimido[5,4-e][1,2,4]triazine-5,7(1H,6H)-dione] showed an LD50 [1] of 0.71 ± 3.31 µM and an IC50 [2, 4] of 190 ± 14 nM.
`Cn1nc(-c2ccc(Cl)cc2)nc2c(=O)n(C)c(=O)nc1-2` [Compound 5h, 3-(4-Chlorophenyl)-1,6-dimethylpyrimido[5,4-e][1,2,4]triazine-5,7(1H,6H)-dione] showed an LD50 [1] of 2.84 ± 0.80 µM and an IC50 [2, 4] of 1050 ± 290 nM.
Work on `Cn1nc(-c2cccc(Cl)c2)nc2c(=O)n(C)c(=O)nc1-2` [Compound 5i, 3-(3-Chlorophenyl)-1,6-dimethylpyrimido[5,4-e][1,2,4]triazine-5,7(1H,6H)-dione] yielded an LD50 [1] of 23.88 ± 5.17 µM and an IC50 [2, 4] of 5030 ± 1180 nM.
For `Cn1nc(-c2ccc(Cl)c(Cl)c2)nc2c(=O)n(C)c(=O)nc1-2` [Compound 5j, 3-(3,4-Dichlorophenyl)-1,6-dimethylpyrimido[5,4-e][1,2,4]triazine-5,7(1H,6H)-dione], the LD50 [1] was 30.1 ± 17.54 µM and the IC50 ([2]; Rattus norvegicus) was 9320 ± 7440 nM.
Work on `CCN(CC)CCOc1ccc(-c2nc3c(=O)n(C)c(=O)nc-3n(C)n2)cc1` [Compound 5l, 3-(4-(2-(Diethylamino)ethoxy)phenyl)-1,6-dimethylpyrimido[5,4-e][1,2,4]triazine-5,7(1H,6H)-dione] yielded an LD50 [1] of 0.136 ± 1 µM and an IC50 [2, 4] of 16 ± 18 nM.
`Cc1ccc(-c2n[nH]c3nc(=O)n(C)c(=O)c-3n2)cc1` [Compound 6a, 6-Methyl-3-p-tolylpyrimido[5,4-e][1,2,4]triazine-5,7(1H,6H)-dione] gave an LD50 [1] greater than 50 µM and an IC50 [2, 4] of 21100 ± 14100 nM.
For `Cn1c(=O)c2nc(-c3ccccc3F)nnc2n(Cc2ccccc2)c1=O` [Compound 7d, 8-Benzyl-3-(2-fluorophenyl)-6-methylpyrimido[5,4-e][1,2,4]triazine-5,7(6H,8H)-dione], the IC50 [2, 4] was 3600 ± 2250 nM.
`Cn1c(=O)c2nc(-c3ccc(F)cc3)nnc2n(Cc2ccc(C(C)(C)C)cc2)c1=O` [Compound 7h, 8-(4-tert-Butylbenzyl)-3-(4-fluorophenyl)-6-methylpyrimido[5,4-e][1,2,4]triazine-5,7(6H,8H)-dione] gave an IC50 [2, 4] of 330 ± 10 nM.
For `COc1ccc(-c2nnc3c(n2)c(=O)n(C)c(=O)n3Cc2ccc(F)cc2)cc1` [Compound 7j, 8-(4-Fluorobenzyl)-3-(4-methoxyphenyl)-6-methylpyrimido[5,4-e][1,2,4]triazine-5,7(6H,8H)-dione], the melting point was 230 to 234 °C (dec.).
In the case of `Cn1c(=O)nc2n(CCO)nc(-c3ccccc3)nc-2c1=O` [Compound 8a, 1-(2-Hydroxyethyl)-6-methyl-3-phenylpyrimido[5,4-e][1,2,4]triazine-5,7(1H,6H)-dione], the LD50 [1] is reported as 2.09 ± 0.78 µM and the IC50 [2, 4] is reported as 970 ± 220 nM.
`Cc1ccc(-c2nc3c(=O)n(C)c(=O)nc-3n(CCO)n2)cc1` [Compound 8b, 1-(2-Hydroxyethyl)-6-methyl-3-(4-methylphenyl)pyrimido[5,4-e][1,2,4]triazine-5,7(1H,6H)-dione] showed an LD50 [1] of 2.55 ± 21.76 µM and an IC50 [2, 4] of 320 ± 230 nM.
Compound `Cn1c(=O)nc2n(CCO)nc(-c3ccc(Cl)cc3)nc-2c1=O` [Compound 8c, 3-(4-Chlorophenyl)-1-(2-hydroxyethyl)-6-methylpyrimido[5,4-e][1,2,4]triazine-5,7(1H,6H)-dione] has an LD50 [1] of 6.36 ± 21.76 µM and an IC50 [2, 4] of 4560 ± 8240 nM.
`COc1ccc(-c2nc3c(=O)n(C)c(=O)nc-3n(CCO)n2)cc1` [Compound 8e, 1-(2-Hydroxyethyl)-3-(4-methoxyphenyl)-6-methylpyrimido[5,4-e][1,2,4]triazine-5,7(1H,6H)-5,7-dione] showed an LD50 [1] of 8.39 ± 10.29 µM and an IC50 ([2]; IEC18-S33Y cells, 17-20 h with compound, β-catenin-dependent firefly luciferase with Renilla control, read-out: IC50) of 6070 ± 4910 nM.
`Cn1c(=O)nc2n(CCO)nc(-c3ccc(OCCN4CCCC4)cc3)nc-2c1=O` [Compound 8f, 1-(2-Hydroxyethyl)-6-methyl-3-(4-(2-(pyrrolidin-1-yl)ethoxy)phenyl)pyrimido[5,4-e][1,2,4]triazine-5,7(1H,6H)-dione] gave an LD50 [1] of 1.55 ± 0.22 µM and an IC50 [2, 4] of 1340 ± 150 nM.
With `CN(C)c1ccc(-c2nc3c(=O)n(C)c(=O)nc-3n(CCO)n2)cc1` [Compound 8i, 3-(4-(Dimethylamino)phenyl)-1-(2-hydroxyethyl)-6-methylpyrimido[5,4-e][1,2,4]triazine-5,7(1H,6H)-dione] the melting point was 170 to 180 °C (dec.).
For `Cn1c(=O)nc2n(CCO)nc(-c3ccccn3)nc-2c1=O` [Compound 8j, 1-(2-Hydroxyethyl)-6-methyl-3-(pyridin-2-yl)pyrimido[5,4-e]-[1,2,4]triazine-5,7(1H,6H)-dione], the LD50 [1] was 9.55 ± 0.001 µM and the IC50 [2, 4] was 3810 ± 590 nM.
Compound `CCN(CC)CCOc1ccc(-c2nnc3c(n2)c(=O)n(C)c(=O)n3Cc2cccc(F)c2)cc1` [Compound 10c, 3-(4-(2-(Diethylamino)ethoxy)phenyl)-8-(3-fluorobenzyl)-6-methylpyrimido[5,4-e][1,2,4]triazine-5,7(6H,8H)-dione] has an LD50 [1] of 21.49 ± 10.42 µM and an IC50 [2, 4] of 23400 ± 2830 nM.
In the case of `CCN(CC)CCOc1ccc(-c2nnc3c(n2)c(=O)n(C)c(=O)n3Cc2ccc(F)c(F)c2)cc1` [Compound 10g, 3-(4-(2-(Diethylamino)ethoxy)phenyl)-8-(3,4-difluorobenzyl)-6-methylpyrimido[5,4-e][1,2,4]triazine-5,7(6H,8H)-dione], the LD50 [1] is reported as 2.57 ± 10.99 µM, the “pharmacokinetic properties as assessed by peak plasma level and half-life” value [3] is reported as “favorable pharmacokinetic properties” and the IC50 [2, 4] is reported as 700 ± 130 nM.
With `Cn1nc(-c2ccccc2F)nc2c(=O)[nH]c(=O)nc1-2` [Compound 17a, 3-(2-Fluorophenyl)-1-methylpyrimido[5,4-e][1,2,4]triazine-5,7(1H,6H)-dione] the melting point was 240 to 247 °C (dec.).
For `Cn1nc(-c2ccccc2F)nc2c(=O)n(Cc3ccc(F)c(F)c3)c(=O)nc1-2` [Compound 17e, 6-(3,4-Difluorobenzyl)-3-(2-fluorophenyl)-1-methylpyrimido[5,4-e][1,2,4]triazine-5,7(1H,6H)-dione], the LD50 [1] was 0.48 ± 0.10 µM, the “inhibitory activity of β-catenin-mediated transcription (in words)” value ([2]; IEC18-S33Y cells) was “antagonized β-catenin-mediated transcription” and the IC50 [2, 4] was 110 ± 60 nM.
